# Assay results: paper PMC8229129, “Local Colonic Administration of a Serine Protease Inhibitor Improves Post-Inflammatory Visceral Hypersensitivity in Rats” (Pharmaceutics, 2021)
# Legend:
# tryptase = tested on: tryptase; set-up: method as in PMID 29911328; conditions: in vitro; cited from earlier work
# [1] = Plasma concentrations after intracolonic administration (LC-MS/MS); format: in vivo, Sprague–Dawley rats; conditions: rat; for Plasma concentration: intracolonic 5 mg/kg
# Protocol: To evaluate the pharmacokinetic properties of UAMC-00050, it was administered in male Sprague–Dawley rats (200–225 g) either colonically (5 mg/kg, in a volume of 200 µL 5% DMSO solution) or intravenously (1 mg/kg in a volume of 200 µL 5% DMSO solution). Plasma samples were collected after 5, 15, 30, 45, 60, 90, 120, and 180 min via the tail vein and stored at −80 °C until analysis.
# Sample preparation and analysis of plasma samples consisted of protein precipitation followed by direct injection in a liquid chromatography–tandem mass spectrometry (LC-MS/MS) instrument. Briefly, 100 µL of plasma was spiked with 20 µL of nordazepam-D5 used as internal standard for quantification (yielding in a final concentration of 485 ng/mL) and afterwards 180 µL of acetonitrile was added to precipitate proteins. Subsequently, the samples were vortexed for 2.5 min at 2000× g and centrifuged for 5 min at 10,000× g. In a next step, 100 µL of the supernatant was transferred to a 0.20 µm centrifugal filter to remove remaining particles. After centrifugation for 5 min at 10,000× g, the remaining filtrate was transferred to an autosampler vial ready to be analyzed with LC-MS/MS. A seven-level point calibration curve with final concentrations ranging between 5 and 1000 ng/mL and a curve weighting factor of 1/x^2 was prepared in blank mouse plasma using different working solution standards of UAMC-00050 and a fixed amount of internal standard. The lower limit of quantification of the method was 5 ng/mL.
# A gradient was applied as follows: 0–0.5 min: 5% B; 0.5–10 min 5–100% B; 10–12 min 100% B; and 12–12.1 min 5% B. The total run time was 18 min and the injection volume was set to 5 µL. Detection and quantification of UAMC-00050 were performed with an Agilent 6410 triple quadrupole MS system with an electrospray interface (ESI) operating in positive ionization mode. The following source parameters were applied: gas temperature 350 °C, gas flow 10 L/min, nebulizer 35 psi, and capillary voltage 4000 V. Compound-dependent MS parameters are summarized in Table 1. The most abundant transition of UAMC-00050 was used as quantifier and the other transitions were used for confirmation (qualifiers). For compound confirmation, the following criteria were used: the quantifier/qualifier ratio should fall within ±15% of the ratio observed in calibrators and the relative retention time should fall within 2.5% of the values observed in the calibrators.
# [2] = tested on: elastase-like, cathepsin G and kallikrein activities in colonic tissue; assay: Other specific proteolytic activities in colonic tissue of post-colitis rats after intracolonic administration; format: in vivo, Sprague–Dawley rats; conditions: 5 mg/kg intracolonic, 90 min
# Protocol: (§1) The serine protease inhibitor UAMC-00050 (0.1–1.0–2.5–5.0 mg/kg, dissolved in a volume of 200 µL) or its vehicle (5% DMSO in H2O) was delivered colonically using a flexible catheter (18 G, length 4.5 cm) under short-lasting isoflurane anesthesia (5.0% induction, 1.5% maintenance). To prevent expulsion of the enema, animals were held in a Trendelenburg position for 90 s. Doses for intracolonic administration were based on the doses known to be effective via an i.p. administration and adapted afterwards based on preliminary results.
# (§2) Trypsin-like, chymotrypsin-like, cathepsin G, elastase-like, and kallikrein activities were determined in colon tissue and fecal samples to profile serine protease activity. […]
# (§3) Boc-Gln-Ala-Arg-AMC (75 µM) and n-Tosyl-Gly-Pro-Arg-AMC (100 µM) in 50 mM Tris-HCl pH 8.0 containing 120 mM NaCl were used to measure the trypsin-like activity. […] The fluorescence was measured during 20 min at 37 °C on a Tecan Infinite F200 Pro microtiter plate reader. The other activities were assessed in a similar assay, using the substrates mentioned below. Chymotrypsin-like and kallikrein activity were measured with Suc-Ala-Ala-Pro-Phe-AMC (0.45 mM) and H-Pro-Phe-Arg-AMC (0.45 mM), respectively. Elastase-like activity was measured using two assays, one using Suc-Ala-Ala-Pro-Val-AMC as a substrate and the other using Suc-Ala-Ala-Ala-AMC (both 0.45 mM). […]
# cathepsin G = tested on: cathepsin G; set-up: method as in PMID 29911328; conditions: in vitro; cited from earlier work
# chymotrypsin = chymotrypsin (Bos taurus, UniProt P00766); assay: Inhibition of chymotrypsin by UAMC-00050 (IC50); format: biochemical; conditions: in vitro
# Protocol: Here, the potency of UAMC-00050 to inhibit two other serine proteases, chymotrypsin and pancreatic elastase, with specificity was determined.
# neutrophil elastase = tested on: neutrophil elastase; set-up: method as in PMID 29911328; conditions: in vitro; cited from earlier work
# matriptase = tested on: matriptase; set-up: method as in PMID 29911328; conditions: in vitro; cited from earlier work
# [3] = tested on: chymotrypsin-like activity in colonic tissue; assay: Chymotrypsin-like activity in colonic tissue after intracolonic administration (Suc-Ala-Ala-Pro-Phe-AMC); format: in vivo, Sprague–Dawley rats; conditions: post-colitis rats, 5 mg/kg intracolonic, colon harvested 90 min after administration, median (IQR), n = 12; vehicle 1.54 (1.06), p < 0.05
# Protocol: as §1, §2, §3
# inflammatory parameters = tested on: inflammatory parameters; set-up: method as in PMID 29911328; conditions: post-inflammatory model, intraperitoneal treatment; cited from earlier work
# plasmin = tested on: plasmin; set-up: method as in PMID 29911328; conditions: in vitro; cited from earlier work
smiles,measurement,setting,value
CC(=O)Nc1ccc(OP(=O)(Oc2ccc(NC(C)=O)cc2)C(Cc2ccc(N=C(N)N)cc2)NC(=O)OCc2ccccc2)cc1.Cl (stereo not shown) [UAMC-00050],inhibition of tryptase,tryptase,efficiently inhibits
same,Plasma concentration after intracolonic administration as share of plasma concentration after intravenous administration,"[1]; 5 min after administration, 5 mg/kg intracolonic versus 1 mg/kg intravenous",5.4%
same,Plasma concentration,"[1]; 30–180 min after administration, lower limit of quantification 5 ng/mL",below the lower limit of quantification
same,Plasma concentration,"[1]; 5 min after administration, mean ± SEM, n = 5",14.1 ± 2.9 ng/mL
same,Plasma concentration,"[1]; 15 min after administration, mean ± SEM, n = 5",10.3 ± 1.3 ng/mL
same,"Effect on the other specific proteolytic activities (elastase-like, cathepsin G, kallikrein) in colonic tissue",[2],No effect
same,inhibition of cathepsin G,cathepsin G,efficiently inhibits
same,IC50,chymotrypsin,> 10 µM
same,inhibition of neutrophil elastase,neutrophil elastase,did not efficiently inhibit
same,inhibition of matriptase,matriptase,efficiently inhibits
same,Chymotrypsin-like activity in colonic tissue,[3],0.84 (0.57) U/g
same,Effects on inflammatory parameters,inflammatory parameters,no effects
same,inhibition of plasmin,plasmin,efficiently inhibits
